This is an account of results in patent US20030157516A1, “G protein coupled receptor” (priority 2000, published 2003).

Read-outs that look alike come from different tables or passages of the source.

Holding throughout (format): cell-based
In one test the target is T1, rat adenine binding GPCR (Rattus norvegicus, UniProt Q7TN49).
T1 sequence (Q7TN49 1-304): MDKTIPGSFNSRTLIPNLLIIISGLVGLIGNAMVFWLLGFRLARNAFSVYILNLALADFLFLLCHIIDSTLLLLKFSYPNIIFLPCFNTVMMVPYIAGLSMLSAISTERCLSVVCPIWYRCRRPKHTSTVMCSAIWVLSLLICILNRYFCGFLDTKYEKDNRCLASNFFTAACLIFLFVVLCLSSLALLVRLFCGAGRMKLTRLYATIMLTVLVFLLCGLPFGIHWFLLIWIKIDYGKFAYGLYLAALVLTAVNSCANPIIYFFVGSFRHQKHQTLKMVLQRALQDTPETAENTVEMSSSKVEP
Put plainly: FLIPR Ca2+ transient assay, agonism, HEK293/Gq chimera cells transiently transfected with rat adenine binding GPCR/pcDNA3. Also noted: The full length reading frame was inserted into the mammalian expression vector pcDNA3; expressed in transfected cells; host or cells: HEK293 cells stably transfected with pLEC/Gqi or pLEC/Gqo. An excerpt: This assay is based around an instrument called a FLuorescence Imaging Plate Reader ((FLIPR®), Molecular Devices Corporation). In its most common configuration, it excites and measures fluorescence emitted by fluorescein-based dyes. It uses an argon-ion laser to produce high power excitation at 488 nm of a fluorophore, a system of optics to rapidly scan the over the bottom of a 96-/384-well plate and a sensitive, cooled CCD camera to capture the emitted fluorescence. It also contains a 96-/384-well pipetting head allowing the instrument to deliver solutions of test agents into the wells of a 96-/384-well plate. The FLIPR assay is designed to measure fluorescence signals from populations of cells before, during and after addition of compounds, in real time, from all 96-/384-wells simultaneously. […] As described below, calcium transients in cells transfected with adenine binding GPCR were measured using the FLIPR assay in order to measure activation of the receptors by various substrates in order to determine the natural ligand of the receptor.
The full length reading frame was inserted into the mammalian expression vector pcDNA3 (Invitrogen, Carlsbad, Calif., U.S.A.) and the resulting expression construct was transiently transfected with the FuGENE 6 reagent (Roche Molecular Biochemicals, Mannheim, Germany) into HEK293 cells stably transfected (E. Bender, unpublished) with pLEC/Gqi or pLEC/Gqo (Molecular Devices, Sunnyvale, Calif., U.S.A.). The cells were loaded with Fluo-4 (Molecular Probes, Eugene, Oreg., U.S.A.) according to the recommendations of the supplier. […]
Using the FLIPR assay as above, calcium transients were measured in both sets of cells with the transients attributable to the novel GPCR measured as the difference between the two transients. Results are illustrated in FIG. 4. […]

Test [1] addresses T2, adenine binding rat receptor (Rattus norvegicus, UniProt Q7TN49).
T2 construct: expressed in transfected cells; host or cells: CHO cells, transient, lipofectamine PLUS
T2 sequence (Q7TN49 1-304): T1 sequence (Q7TN49 1-304)
Put plainly: cAMP measurements on CHO cells permanently transfected (clone 28). How it is done:
(§1) For permanently transfected CHO cells, cAMP measurements were performed using the indirect RIA kit from NEN (Belgium).
(§2) a) Methods: Two days before the experiment the cells were seeded out in a 96 well plate at a density required for approximately 90% confluence at the day of the experiment. After removal of the growth medium, the cells were washed twice with a controlled salt solution (CSS) containing 25 mM Tris-HCl, pH 7.4, 120 mM NaCl, 5.4 mM KCl, 0.8 mM MgCl2, 1.8 mM CaCl2, 15 mM glucose and 15 mg/l phenol red, with an addition of a phosphodiesterase inhibitor IBMX (3-isobutyl-1-methylxanthine) in a concentration of 1 mM and […]. Basal cAMP levels were determined in CSS containing these additives and maximally stimulated cAMP levels were determined in the presence of 50 μM forskolin. For testing agonistic activity, the compounds were incubated with the cells for 20 minutes at 37° C. The reaction was stopped by addition of ice cold HClO4 (1N) and stored at −20° C. After thawing the mixtures were neutralized with an equivalent amount of phosphate buffered KOH, left at 4° C. during 30 minutes to allow the salts to precipitate and centrifuged at 2,000 RPM for 5 minutes at 4° C.
(§3) For the quantitative determination of the cAMP levels, a 96-well Flashplate radioimmunoassay kit from NEN was used, according to the protocol of the supplier. The sigmoid concentration response curves (duplicate points) were analyzed using the GraphPad Prism program.

In test [2] the test system is wild type CHO cells. Briefly: cAMP measurements on wild type CHO cells. The following applies: wild type CHO cells. The protocol: as §1, §2, §3
The subject of test [3] is wild type CHO cells. Briefly: Intracellular Ca2+ measurements (FLIPR) on wild type CHO cells.

`Nc1ncnc2c1ncn2[C@@H]1O[C@H](COP(=O)(O)O)[C@@H](O)[C@H]1O` [AMP]: at rat adenine binding GPCR (at high concentrations (>3.3 μM)), the “agonism of nucleoside and nucleotide derivatives of adenine” value is given as “weak partial agonism”.
Take `Nc1ncnc2nc[nH]c12` [Adenine, adenine]: the EC50 was 3 nM in test [1] (after Na-butyrate induction, read-out: EC50); 2.88 nM in test [1] (transfected cells (clone 28), 0.5% hiFCS, Na-butyrate induction, read-out: pEC50 (converted)); 2.95 nM in test [1] (transfected cells (clone 28), 10% hiFCS, Na-butyrate induction, read-out: pEC50 (converted)). Moreover, the cAMP response entry with wild type CHO cells [2] is on record as “did not show any response”. Also, the “intracellular Ca2+ response” value in the test with wild type CHO cells [3] was “did not show any response”. The “calcium transients (agonistic activity)” value at rat adenine binding GPCR (HEK293/Gaqo cells, 3.3 nM-33 μM, difference to empty-vector cells) was “dose responsive calcium transient”.
